Test results from the NIST ThermoML archive (doi:10.1021/je900127m).

Assay: xn = mol fraction of the nth substance listed
Details: 313.15 K, Fluid (supercritical or subcritical phases), Bellows volumetry

O=C=O [carbon dioxide] + CCO
Details	mass density [kg/m3]
1000 kPa, x1 = 1	17.9
2000 kPa, x1 = 0.1	787.2
2000 kPa, x1 = 1	37.1
3000 kPa, x1 = 0.1	788.2
3000 kPa, x1 = 1	58.7
4000 kPa, x1 = 0.1	789.2
4000 kPa, x1 = 0.2	799.4
4000 kPa, x1 = 1	83.5
5000 kPa, x1 = 0.1	790.2
5000 kPa, x1 = 0.2	800.6
5000 kPa, x1 = 1	112.7
6000 kPa, x1 = 0.1	791.1
6000 kPa, x1 = 0.2	801.9
6000 kPa, x1 = 0.3	811.2
6000 kPa, x1 = 0.4	816.6
6000 kPa, x1 = 1	148.8
7000 kPa, x1 = 0.1	792.1
7000 kPa, x1 = 0.2	803.1
7000 kPa, x1 = 0.3	812.7
7000 kPa, x1 = 0.4	818.7
7000 kPa, x1 = 0.5	821.1
7000 kPa, x1 = 1	197.3
8000 kPa, x1 = 0.1	793.1
8000 kPa, x1 = 0.2	804.2
8000 kPa, x1 = 0.3	814.3
8000 kPa, x1 = 0.4	820.8
8000 kPa, x1 = 0.5	824
8000 kPa, x1 = 0.6	818.8
8000 kPa, x1 = 0.7	804.5
8000 kPa, x1 = 0.8	771.1
8000 kPa, x1 = 1	276.7
9000 kPa, x1 = 0.1	794
9000 kPa, x1 = 0.2	805.3
9000 kPa, x1 = 0.3	815.7
9000 kPa, x1 = 0.4	822.8
9000 kPa, x1 = 0.5	826.8
9000 kPa, x1 = 0.6	823
9000 kPa, x1 = 0.7	811.5
9000 kPa, x1 = 0.8	784.8
9000 kPa, x1 = 0.899	729.1
9000 kPa, x1 = 0.95	667
9000 kPa, x1 = 1	483.4
10000 kPa, x1 = 0.1	795
10000 kPa, x1 = 0.2	806.6
10000 kPa, x1 = 0.3	817.2
10000 kPa, x1 = 0.4	824.7
10000 kPa, x1 = 0.5	829.4
10000 kPa, x1 = 0.6	827
10000 kPa, x1 = 0.7	817.8
10000 kPa, x1 = 0.8	795.8
10000 kPa, x1 = 0.899	752.3
10000 kPa, x1 = 0.95	709.8
10000 kPa, x1 = 1	627.4

CCO [ethanol] + O=C=O
x2 = 0
Details	mass density [kg/m3]
1000 kPa	773.1
2000 kPa	773.9
3000 kPa	774.8
4000 kPa	775.5
5000 kPa	776.4
6000 kPa	777.2
7000 kPa	778
8000 kPa	778.8
9000 kPa	779.6
10000 kPa	780.4
